In paper PMC5100903, “Tissue Kallikrein Inhibitors Based on the Sunflower Trypsin Inhibitor Scaffold – A Potential Therapeutic Intervention for Skin Diseases” (PLoS ONE, 2016):
Positions of bridges follow the written chain, without caps; N, C: chain ends. Residues, ends and D or L forms follow the SMILES beside them.

Tests used:
[1] = test system: in vitro skin equivalent cultures (primary human keratinocytes and fibroblasts); experiment: Organotypic skin culture, in-situ zymography with casein substrate; assay type: cell-based; conditions: 10 μM in PBS, topical, once every day for two days
Protocol: Primary keratinocytes and fibroblasts were isolated from skin biopsies from healthy donors and incubated with 0.25% trypsin/EDTA 3 hours for keratinocytes and Serva 50U/ml collagenase NB6 (Universal Biologicals, Cambridge, UK) 2 hours for fibroblasts. Isolated primary keratinocytes were then co-cultured with lethally irradiated 3T3 mouse fibroblasts and grown in keratinocyte culture media. Primary keratinocytes and fibroblasts from normal donors’ skin biopsies were cultivated in vitro on de-epidermalized dermal matrix as described. Briefly, dermal fibroblasts derived from skin biopsies were seeded onto the reticular side of the de-epidermalized dermal matrix and keratinocytes were seeded on the papillary side. After keratinocytes reached confluence, the culture was lifted at the air-liquid interface for 14 days. The OTCs were then topically treated with Analogue 6 (10 μL, 10 μM) or 1xPBS for the untreated control in two doses each separated by 24hrs. Following treatment, the cultures were harvest and embedded in O.C.T.™ (Sakura Finetek, Netherlands) for cryosections. The cryosections (7 μm thick) of the treated and untreated tissues were washed with 1xPBS. […] Sections were examined under a Leica DM LB fluorescence microscope and the images processed using ImageJ (v1.46).

[2] = target: T1, KLK5 (Homo sapiens, UniProt Q9Y337); experiment: biochemical
T1 construct: purchased Novoprotein
T1 sequence (Q9Y337 23-293): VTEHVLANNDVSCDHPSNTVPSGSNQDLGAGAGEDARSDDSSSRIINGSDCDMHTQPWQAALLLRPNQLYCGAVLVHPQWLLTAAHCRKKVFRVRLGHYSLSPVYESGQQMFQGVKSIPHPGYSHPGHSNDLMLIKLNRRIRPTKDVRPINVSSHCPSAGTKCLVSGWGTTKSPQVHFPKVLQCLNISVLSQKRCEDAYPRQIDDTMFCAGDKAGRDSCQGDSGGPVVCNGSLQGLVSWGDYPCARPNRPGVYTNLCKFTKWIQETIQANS
Protocol: All assays were performed on 96-well microplates and the change in relative fluorescence unit (RFU) was measured by fluorescence spectrometer (BMG FLUOstar OPTIMA). The excitation/emission wavelength was 360/460 nm for the substrate Boc-VPR-AMC (Bachem AG, Hauptstrasse, Switzerland) and MeOSuc-AAPV-AMC (Bachem AG, Hauptstrasse, Switzerland) and 485/520 nm for BODIPY_FL casein (Invitrogen, Carlsbad, US). Stock solution of Boc-VPR-AMC was prepared by dissolving the solid in dimethyl sulfoxide to 100 mM and 10 mM for MeOSuc-AAPV. For BODIPY_FL casein, it was reconstituted to 1 mg/mL in 1xPBS. […] The % of inhibition was calculated by the following equation: % of Inhibition=(1−(Sample RFU − Min RFU)/(Max RFU − Min RFU)) X100
Each inhibition curves were done in triplicates with a minimum of five concentration points fitted. Fitting of each curve was done using SigmaPlot with the Four Parameter Logistic Function and the IC50 calculated. […] All tested compounds were reconstituted to stock solution in water.
The diluent for all the tested compounds, protein and substrate was 1xPBS. Serially diluted ligands were mixed with diluted recombinant KLK5 (10 nM f/c). The ligand-protein mixtures were incubated on ice for one hour and 19.5 μL was pipetted into a well of a 96-well microplate in triplicates. To start the reaction, 100 μL of the diluted (41.6 μM f/c) Boc-VPR-AMC substrate solution (contained 0.05% v/v Brij35) was added. The plate was incubated at 37°C and the RFU reading was taken 15 minutes after.
There are two previously reported Km values for KLK5 and its substrate Boc-VPR-AMC which allowed the IC50 to Ki conversion. Ki values were calculated according to the Cheng-Prusoff equation Ki= IC50/1+[S]/Km for single site competitive binding.

Row | Compound | penetration of the cornified layer of in vitro grown skin [1] | skin protease activity in epidermis (in-situ zymography) [1] | IC50 ([2]; KLK5 10 nM, Boc-VPR-AMC 41.6 μM, 1xPBS, one hour on ice preincubation, read at 15 min, 37°C) | Ki ([2]; calculated from Table 2 IC50 by Cheng-Prusoff equation, read-out: Inhibitory Constant (Ki))
1 | CC[C@H](C)[C@@H]1NC(=O)[C@H](CO)NC(=O)[C@H](CCCNC(=N)N)NC(=O)[C@H]([C@@H](C)O)NC(=O)[C@@H]2CSSC[C@H](NC(=O)[C@H](Cc3c[nH]cn3)NC(=O)[C@@H]3CCCN3C(=O)[C@@H]3CCCN3C1=O)C(=O)N[C@@H](Cc1c[nH]c3ccccc13)C(=O)N1CCC[C@H]1C(=O)N[C@@H](CC(=O)O)C(=O)NCC(=O)N[C@@H](CCCNC(=N)N)C(=O)N2 [Analogue 6] (cyclo(CTRSIPPHCWPDGR); disulfide 1-9) | penetrated the cornified layer | weaker in the epidermis of the treated skin compared to untreated skin | – | –
2 | CC[C@H](C)[C@@H]1NC(=O)[C@H](CO)NC(=O)[C@H](CCCCN)NC(=O)[C@H]([C@@H](C)O)NC(=O)[C@@H]2CSSC[C@H](NC(=O)[C@H](Cc3c[nH]cn3)NC(=O)[C@@H]3CCCN3C(=O)[C@@H]3CCCN3C1=O)C(=O)N[C@@H](Cc1ccccc1)C(=O)N1CCC[C@H]1C(=O)N[C@@H](CC(=O)O)C(=O)NCC(=O)N[C@@H](CCCNC(=N)N)C(=O)N2 [Analogue I10H] (cyclo(CFPDGRCTKSIPPH); disulfide 1-7) | – | – | 352 ± 144 nM | 322 nM
